{"source": "patent US20100041712A1", "about": "“SUBSTITUTED IMIDAZOLE COMBINATIONS” (PFIZER INC., priority 2008, published 2010)", "tested_on": "Ctenocephalides felis", "assay": "In-vivo study: topical spot-on formulations on beagle dogs infested with fleas on Day 30", "conditions": "compound alone, 30 mg/kg topical, Day 30 infestation (Table 1)", "method": "In-vivo studies were conducted in compliance with International Cooperation on Harmonisation of Technical Requirements for Registration of Veterinary Products (VICH) and Good Clinical Practice (GCP) principles and practices.\nIn one in-vivo study, topical spot-on formulations were prepared using dipropylene glycol monomethyl ether (DPGMME) and ethanol (80:20% v/v) and butylated hydroxyl anisol (BHA) 0.1% w/v. Control was vehicle. Treatment T02 was 30 mg/kg (150 mg/mL) compound (1A1); T03 was 20 mg/kg (100 mg/mL) compound (1A1), 6.7 mg/kg (33.5 mg/mL) fipronil, and 6 mg/kg (30 mg/mL) s-methoprene; T04 was 30 mg/kg (150 mg/mL) compound (1A1), 6.7 mg/kg (50.4 mg/mL) fipronil, and 6 mg/kg (45 mg/mL) s-methoprene; and T05 was 30 mg/kg (150 mg/mL) compound (1A1), 6.7 mg/kg (33.5 mg/mL) fipronil and 6 mg/kg (30 mg/mL) s-methoprene. A total of 40 beagle dogs (8 dogs/treatment group) were used. Dogs were individually housed. Treatments were administered on Day 0. On Day 30, dogs were infested with 100 Ctenocephalides felis unfed adult fleas. Dead and non-moving fleas were counted at 24 and 48 hours after infestation (Table 1)."}
{"smiles": "Cc1cccc([C@H](C)c2ncc[nH]2)c1C", "note": "[compound (1A1), 2-[(1S)-1-(2,3-dimethylphenyl)ethyl]-1H-imidazole]", "values": [{"measurement": "intrinsic flea activity", "value": "lacks intrinsic flea activity"}]}
